“And” between values parts separate entries of the source, which are not always exact repeats. Equal entries are not always repeated. Where two headings read alike, the source gives them in different places.
Experiments:
Assay type in all cases: cell-based
[1] = tested on: Aspergillus niger (A. niger—ATCC 16404); assay: Synergy test, microtiter plate high resolution MIC assay, mold in PDB medium; set-up: Qb (Second Component B) / Qa (First Component A): unit: ppm
Method in brief: (§1)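 High-resolution microtiter MICs of BBIT or MBIT (component A) combined with a second microbicide (B), dilutions spanning 2–10,000 ppm active. E. coli ~5×10^6/mL in M9GY at 30 °C; C. albicans and A. niger 5×10^5/mL in PDB. Synergy index = Qa/QA + Qb/QB; >1 antagonism.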

[2] = tested on: Escherichia coli (E. coli—ATCC #8739); assay: Synergy test, microtiter plate high resolution MIC assay, bacterium in M9GY medium; set-up: Qa (First Component A) / Qb (Second Component B): unit: ppm; details: for MIC of the component acting alone (QA / QB): E. coli 8739, M9GY, 30° C.
Method in brief: as §1

[3] = tested on: Candida albicans (C. albicans—ATCC 10231); assay: Synergy test, microtiter plate high resolution MIC assay, yeast in PDB medium; set-up: Qb (Second Component B) / Qa (First Component A): unit: ppm; details: for MIC of the component acting alone (QA / QB): C. albicans 10231, PDB, 25° C.
Method in brief: as §1

[4] = A=MBIT, B=BBIT, A. niger 16404 - PDB, 4 days
[5] = A=MBIT, B=BBIT, E. coli 8739 - M9GY, 24 hours
[6] = A=MBIT, B=BBIT, C. albicans 10231 - PDB, 48 hours

## CCCCn1sc2ccccc2c1=O [BBIT, N-(n-butyl)-1,2-benzisothiazolin-3-one]
[1]
  Qa (First Component A): 40
  SI (synergy index): 1.00
[1]; A. niger 16404, PDB, 4 days, 25° C.
  MIC of the component acting alone (QA / QB): 15 ppm
[1]; A. niger 16404 - PDB, 3 days, BBIT + hexylene glycol
  SI: 1.00
[1]; A. niger 16404 - PDB, 3 days, BBIT alone (Qb 0) or in mixture with hexylene glycol
  Qa (First Component A = BBIT): 15
[1]; A. niger 16404 - PDB, 3 days, BBIT with Methylparaben
  SI: 1.00
[1]; A. niger 16404 - PDB, 3 days, BBIT with Phospholipid PTC
  SI: 1.00
[1]; A. niger 16404 - PDB, 3 days, BBIT with Potassium sorbate
  SI: 1.00
[1]; A. niger 16404 - PDB, 4 days, BBIT + hexetidine
  SI: 1.00
[1]; A. niger 16404 - PDB, 4 days, BBIT alone (Qb 0) or in mixture with hexetidine
  Qa (First Component A = BBIT): 20
[1]; A. niger 16404 - PDB, 4 days, BBIT with Pentylene glycol
  SI: 1.00
[1]; A. niger 16404 - PDB, 4 days, BBIT with Phospholipid EFA
  SI: 1.00
[1]; A. niger 16404 - PDB, 4 days, BBIT with Quaternium-15
  SI: 1.00
[1]; A. niger 16404 - PDB, 7 days, BBIT + DMDMH
  SI: 1.00
[1]; A. niger 16404 - PDB, 7 days, BBIT + DTBMA
  SI: 1.00
[1]; A. niger 16404 - PDB, 7 days, BBIT + EDTA
  SI: 1.00
[1]; A. niger 16404 - PDB, 7 days, BBIT alone (Qb 0) or in mixture with DMDMH
  Qa (First Component A = BBIT): 80
[1]; A. niger 16404 - PDB, 7 days, BBIT alone (Qb 0) or in mixture with DTBMA
  Qa (First Component A = BBIT): 40
[1]; A. niger 16404 - PDB, 7 days, BBIT alone (Qb 0) or in mixture with EDTA
  Qa (First Component A = BBIT): 40
[1]; A. niger 16404 - PDB, 7 days, BBIT with Phenoxyethanol
  SI: 1.00
[1]; A. niger 16404 - PDB, 7 days, BBIT with Propylparaben
  SI: 1.00
[1]; A. niger 16404 - PDB, 7 days, BBIT with SDHA
  SI: 1.00
[1]; A. niger 16404 - PDB, 7 days, BBIT with Sodium benzoate
  SI: 1.00
[1]; [4]
  Qb (Second Component B): 40
  SI (synergy index): 1.00
[2]
  Qa (First Component A): 200
  SI (synergy index): 1.00
[2]; [5]
  Qb (Second Component B): 100
  SI (synergy index): 1.00
[2]; 24 hours
  MIC of the component acting alone (QA / QB): 200 ppm and 100 ppm
[2]; 48 hours
  MIC of the component acting alone (QA / QB): 100 ppm
[2]; 72 hours
  MIC of the component acting alone (QA / QB): 100 ppm
[2]; E. coli 8739 - M9GY, 24 hours, BBIT + hexylene glycol
  SI: 1.00
[2]; E. coli 8739 - M9GY, 24 hours, BBIT alone (Qb 0) or in mixture with hexylene glycol
  Qa (First Component A = BBIT): 100
[2]; E. coli 8739 - M9GY, 24 hours, BBIT with Pentylene glycol
  SI: 1.00
[2]; E. coli 8739 - M9GY, 24 hours, BBIT with Potassium sorbate
  SI: 1.00
[2]; E. coli 8739 - M9GY, 24 hours, BBIT with Propylparaben
  SI: 1.00
[2]; E. coli 8739 - M9GY, 24 hours, BBIT with SDHA
  SI: 1.00
[2]; E. coli 8739 - M9GY, 24 hours, BBIT with Sodium benzoate
  SI: 1.00
[2]; E. coli 8739 - M9GY, 48 hours, BBIT + DTBMA
  SI: 1.00
[2]; E. coli 8739 - M9GY, 48 hours, BBIT + hexamidine diisethionate
  SI: 1.00
[2]; E. coli 8739 - M9GY, 48 hours, BBIT alone (Qb 0) or in mixture with DTBMA
  Qa (First Component A = BBIT): 100
[2]; E. coli 8739 - M9GY, 48 hours, BBIT alone (Qb 0) or in mixture with hexamidine diisethionate
  Qa (First Component A = BBIT): 6
[2]; E. coli 8739 - M9GY, 48 hours, BBIT with Phospholipid EFA
  SI: 1.00
[2]; E. coli 8739 - M9GY, 72 hours, BBIT + DMDMH
  SI: 1.00
[2]; E. coli 8739 - M9GY, 72 hours, BBIT + EDTA
  SI: 1.00
[2]; E. coli 8739 - M9GY, 72 hours, BBIT + hexetidine
  SI: 1.00
[2]; E. coli 8739 - M9GY, 72 hours, BBIT alone (Qb 0) or in mixture with DMDMH
  Qa (First Component A = BBIT): 100
[2]; E. coli 8739 - M9GY, 72 hours, BBIT alone (Qb 0) or in mixture with EDTA
  Qa (First Component A = BBIT): 100
[2]; E. coli 8739 - M9GY, 72 hours, BBIT alone (Qb 0) or in mixture with hexetidine
  Qa (First Component A = BBIT): 80
[2]; E. coli 8739 - M9GY, 72 hours, BBIT with Methylparaben
  SI: 1.00
[2]; E. coli 8739 - M9GY, 72 hours, BBIT with Phenoxyethanol
  SI: 1.00
[2]; E. coli 8739 - M9GY, 72 hours, BBIT with Phospholipid PTC
  SI: 1.00
[2]; E. coli 8739 - M9GY, 72 hours, BBIT with Quaternium-15
  SI: 1.00
[3]
  Qa (First Component A): 10
  SI (synergy index): 1.00
[3]; [6]
  Qb (Second Component B): 6
  SI (synergy index): 1.00
[3]; 24 hours
  MIC of the component acting alone (QA / QB): 7.5 ppm and 6 ppm and 8 ppm
[3]; 48 hours
  MIC of the component acting alone (QA / QB): 10 ppm and 7.5 ppm and 8 ppm
[3]; C. albicans 10231 - PDB, 24 hours, BBIT + DMDMH
  SI: 1.00
[3]; C. albicans 10231 - PDB, 24 hours, BBIT + DTBMA
  SI: 1.00
[3]; C. albicans 10231 - PDB, 24 hours, BBIT + EDTA
  SI: 1.00
[3]; C. albicans 10231 - PDB, 24 hours, BBIT + hexamidine diisethionate
  SI: 1.00
[3]; C. albicans 10231 - PDB, 24 hours, BBIT + hexylene glycol
  SI: 1.00
[3]; C. albicans 10231 - PDB, 24 hours, BBIT alone (Qb 0) or in mixture with DMDMH
  Qa (First Component A = BBIT): 7.5
[3]; C. albicans 10231 - PDB, 24 hours, BBIT alone (Qb 0) or in mixture with DTBMA
  Qa (First Component A = BBIT): 15
[3]; C. albicans 10231 - PDB, 24 hours, BBIT alone (Qb 0) or in mixture with EDTA
  Qa (First Component A = BBIT): 7.5
[3]; C. albicans 10231 - PDB, 24 hours, BBIT alone (Qb 0) or in mixture with hexamidine diisethionate
  Qa (First Component A = BBIT): 10
[3]; C. albicans 10231 - PDB, 24 hours, BBIT alone (Qb 0) or in mixture with hexylene glycol
  Qa (First Component A = BBIT): 10
[3]; C. albicans 10231 - PDB, 24 hours, BBIT with Methylparaben
  SI: 1.00
[3]; C. albicans 10231 - PDB, 24 hours, BBIT with Pentylene glycol
  SI: 1.00
[3]; C. albicans 10231 - PDB, 24 hours, BBIT with Phenoxyethanol
  SI: 1.00
[3]; C. albicans 10231 - PDB, 24 hours, BBIT with Phospholipid EFA
  SI: 1.00
[3]; C. albicans 10231 - PDB, 24 hours, BBIT with Phospholipid PTC
  SI: 1.00
[3]; C. albicans 10231 - PDB, 24 hours, BBIT with Potassium sorbate
  SI: 1.00
[3]; C. albicans 10231 - PDB, 24 hours, BBIT with Propylparaben
  SI: 1.00
[3]; C. albicans 10231 - PDB, 24 hours, BBIT with Quaternium-15
  SI: 1.00
[3]; C. albicans 10231 - PDB, 24 hours, BBIT with SDHA
  SI: 1.00
[3]; C. albicans 10231 - PDB, 48 hours, BBIT with Sodium benzoate
  SI: 1.00
[3]; C. albicans 10231 - PDB, 72 hours, BBIT + hexetidine
  SI: 1.00
[3]; C. albicans 10231 - PDB, 72 hours, BBIT alone (Qb 0) or in mixture with hexetidine
  Qa (First Component A = BBIT): 15
